Reference: patent publication US11292773B2, “Small molecule inhibitors of BCL-2-associated death promoter (BAD) phosphorylation” (NATIONAL UNIVERSITY OF SINGAPORE, priority 2017, dated 2022)

How the values were obtained:
[1] = target: T1, hBAD phosphorylation (Ser75, Ser99) (Homo sapiens, UniProt Q92934); test: Western blot of hBAD Ser75 and Ser99 phosphorylation in 25 carcinoma cell lines; assay type: cell-based; conditions: all tested carcinoma cell lines, NPB 5 μM
T1 construct: endogenous in cells; host or cells: MCF7 (A6); 25 carcinoma cell lines of seven cancer types (A7)
T1 sequence (Q92934 1-168): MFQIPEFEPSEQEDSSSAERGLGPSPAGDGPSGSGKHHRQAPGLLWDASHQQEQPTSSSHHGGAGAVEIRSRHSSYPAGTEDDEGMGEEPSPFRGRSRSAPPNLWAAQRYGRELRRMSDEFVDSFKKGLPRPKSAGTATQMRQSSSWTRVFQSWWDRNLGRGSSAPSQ
Method: (A) WB analysis was used to assess the levels of phosphorylated human BAD (at Ser75 and Ser99) and BAD protein in the range of carcinoma cell lines, including mammary, ovarian, pancreatic, endometrial, hepatocellular, colon and prostate cancer after treatment with NPB (5 μM). Total BAD was used as an input control for cell lysate. (B) WB analysis was used to assess the levels of pBAD (Ser99) and pAKT (Ser473), AKT and BAD in MCF7, Caov-3, Ishikawa, and AsPC-1 cells. 5 μM each of AKT inhibitor (IV) and NPB was used to treat cells. Depletion of AKT expression was achieved using transient-transfection of short hairpin (sh)-RNA (1&2) directed to AKT transcript as described in methodology. β-ACTIN was used as an input control for cell lysate. For WB analysis, soluble whole cell extracts were run on an SDS-PAGE and immunoblotted as described in materials methodology. The sizes of detected protein bands in kDa are shown on the left side. Note: #; non-transformed immortalized-cell line.
We next analyzed the effect of NPB on phosphorylation of hBAD at both Ser75 and Ser99 by western blot analysis in 25 carcinoma cell lines derived seven different types of cancer.

MCF7 xenograft = MCF7 xenograft in BALB/c-nu female mice; assay type: in vivo
Method: (A) Measurement of tumour volume in BALB/c-nu female mice as described in materials and methods. Animals (n=5 each group) were treated with vehicle, 5 mg/kg NPB or 20 mg/kg NPB, and relative tumour burden was recorded. Animal weight was measured daily for the duration of the experiment. (B) Tumours were excised after the NPB treatment regime and weighed. Representative resected tumours are shown in the right side. (C) WB of tumour tissue to determine levels of p-BAD (Ser99) and BAD. Soluble whole cell extracts were run on an SDS-PAGE and immunoblotted as described in methodology. β-ACTIN was used as an input control. The sizes of detected protein bands in kDa are shown on the left side. (D) Histological analyses of phospho-BAD, BAD, Ki67 and TUNEL staining. […] Apoptotic DNA fragmentation was detected using TUNEL Apoptosis Detection Kit (Gen Script USA Inc.) as described in methodology. Statistical significance was assessed by an unpaired two-tailed Student's t-test (P<0.05 was considered as significant) using GraphPad Prism5. The point represents mean of triplicate experiments; bars, ±SD. **P<0.001, *P<0.05.
5- to 6-week-old BALB/c-nu female mice were subcutaneously implanted with 17β-estradiol pellets (Innovative Research of America) at 0.72 mg/pellet with a 60-day release in the scruff of the neck after three days mice were injected subcutaneously with 100 μl of cell suspension (1×10^7 cells) in right flanks. Tumour growth was monitored by measuring the tumour size using callipers. About 12 days after implantation, mice were randomized and divided into three groups (each group, n=8), according to treatments administered 200 μl of NPB (dissolved in 5% DMSO, 50% PEG400 and 45% water pH 5.0) by intraperitoneal injection every day for seven days. The first group of mice was treated with vehicle, the second with 5 mg/kg dose of NPB, and the third with 20 mg/kg dose of NPB. Animal weight and tumour volumes were measured daily. After completion tumours were excised, photographed, weighed, and fixed or stored in liquid nitrogen for later analysis. Histological analysis was performed as previously described (30-32).
We examined the in vivo efficacy of NPB in a xenograft (MCF7) of MC. Randomly grouped mice with preformed tumours (volume ˜[…]) were injected intraperitoneally with vehicle or NPB at 5 mg/kg or 20 mg/kg. […] However, the tumour weight of NPB-treated animals was reduced compared to vehicle-treated mice and in a dose-dependent manner (FIG. 17B). We further analysed the effect of NPB on hBAD Ser99 phosphorylation levels in tumour tissue using WB analysis (FIG. 17C).

[2] = 5 mg/kg or 20 mg/kg intraperitoneal, daily for seven days, vs vehicle
[3] = histological analysis, vs vehicle
[4] = tumour tissue, western blot, vs control

O=C(NC1CCCC1)c1cccc(C(c2ccccc2O)N2CCN(c3cccc(Cl)c3Cl)CC2)c1 (stereo not shown) [NPB, N-cyclopentyl-3-((4-(2,3-dichlorophenyl)piperazin-1-yl)(2-hydroxyphenyl)methyl) benzamide]
phosphorylation of BAD at the Ser99 site [1]: largely inhibits
phosphorylation of hBAD at the Ser75 site [1]: no effect
animal weight (MCF7 xenograft; [2]): not significantly different
tumour volume (MCF7 xenograft; [2]): significant reduction
tumour weight (MCF7 xenograft; 5 mg/kg or 20 mg/kg intraperitoneal, dose-dependent, vs vehicle): reduced
TUNEL positivity in tumours (MCF7 xenograft; [3]): significantly increased
p-BAD (Ser99) in tumour specimens (histology) (MCF7 xenograft; [3]): significantly reduced
percentage of Ki67 positive cells in tumours (MCF7 xenograft; [3]): significantly decreased
phosphorylation of BAD (at Ser99) in tumour tissue (WB) (MCF7 xenograft; [4]): significantly inhibited
total levels of BAD protein in tumours (WB) (MCF7 xenograft; [4]): No change
